Data as given in publication PMC3138190 (Bioorganic & medicinal chemistry, 2011).

Experiments:
[1] = biological target: T1, human DHFR (Homo sapiens, UniProt P00374); test: Dihydrofolate reductase; assay type: biochemical; details: for activity against DHFR in words: DHFR from different sources
T1 sequence (P00374 1-187): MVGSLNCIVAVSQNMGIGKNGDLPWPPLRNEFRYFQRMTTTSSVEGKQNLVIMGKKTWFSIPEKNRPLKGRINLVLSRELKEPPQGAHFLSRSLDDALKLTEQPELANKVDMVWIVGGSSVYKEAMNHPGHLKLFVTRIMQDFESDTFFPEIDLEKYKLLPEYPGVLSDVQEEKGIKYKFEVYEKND

[2] = biological target: human TS (Homo sapiens, UniProt P04818); test: Thymidylate synthase; assay type: biochemical
Sequence of human TS (P04818 whole entry): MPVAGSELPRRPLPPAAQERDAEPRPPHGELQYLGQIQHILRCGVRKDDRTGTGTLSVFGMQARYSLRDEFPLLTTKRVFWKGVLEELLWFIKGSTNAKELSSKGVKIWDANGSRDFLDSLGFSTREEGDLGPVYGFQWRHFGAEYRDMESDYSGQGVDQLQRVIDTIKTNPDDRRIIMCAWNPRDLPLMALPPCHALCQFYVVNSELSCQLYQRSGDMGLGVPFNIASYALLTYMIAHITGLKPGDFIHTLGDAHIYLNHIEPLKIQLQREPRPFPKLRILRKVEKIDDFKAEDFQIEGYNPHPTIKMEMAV

[3] = test system: hFPGS, from CCRF-CEM cells; details: at concentrations up to 1045 μM; cited from earlier work
[4] = test system: FPGS; details: addition of only one additional glutamic acid; cited from earlier work

## Cc1nc2sc3cccc(CNc4ccc(C(=O)N[C@@H](CCC(=O)O)C(=O)O)cc4)c3c2c(=O)[nH]1 [Compound 4, N-(4-{[(2-methyl-4-oxo-3,4-dihydro[1]benzothieno[2,3-d]pyrimidin-5-yl)methyl]amino}benzoyl)-L-glutamic acid]
[1]
  activity against DHFR in words: inactive

## Nc1nc2sc3cccc(CNc4ccc(C(=O)N[C@@H](CCC(=O)O)C(=O)O)cc4)c3c2c(=O)[nH]1 [Compound 6, N-(4-{[(2-amino-4-oxo-3,4-dihydro[1]benzothieno[2,3-d]pyrimidin-5-yl)methyl]amino}benzoyl)-L-glutamic acid]
[1]
  potency against hDHFR relative to MTX (less potent): about 5 times

## Cc1nc2sc3cccc(CNc4ccc5c(c4)CN([C@@H](CCC(=O)O)C(=O)O)C5=O)c3c2c(=O)[nH]1 [Compound 5, (2S)-2-(5-{[(2-methyl-4-oxo-3,4-dihydro[1]benzothieno[2,3-d]pyrimidin-5-yl)methyl]amino}-1-oxo-1,3-dihydro-2H-isoindol-2-yl)pentanedioic acid]
[2]; hTS, rigid versus flexible side chain, 2-methyl
  potency against hTS relative to 4 (less potent): 3 fold
[1]
  activity against DHFR in words: inactive

## Nc1nc2sc3cccc(CNc4ccc5c(c4)CN([C@@H](CCC(=O)O)C(=O)O)C5=O)c3c2c(=O)[nH]1 [Compound 7, (2S)-2-(5-{[(2-Amino-4-oxo-3,4-dihydro[1]benzothieno[2,3-d]pyrimidin-5-yl)methyl]amino}-1-oxo-1,3-dihydro-2H-isoindol-2-yl)pentanedioic acid]
[2]; hTS
  potency against hTS relative to compound 1 (more potent): 2 fold
[2]; rigid versus flexible side chain, 2-amino
  potency relative to 6: twice as potent
[1]
  potency against hDHFR relative to MTX (less potent): about 5 times

## Cc1[nH]c2nc(N)[nH]c(=O)c2c1Sc1ccc(C(=O)N[C@@H](CCC(=O)O)C(=O)O)cc1 [Compound 3, N-{4-[(2-amino-6-methyl-4-oxo-4,7-dihydro-3H-pyrrolo[2,3-d]pyrimidin-5-yl)thio]benzoyl}-L-glutamic acid]
[3]
  substrate activity for hFPGS: not a substrate

## Cc1nc2ccc3ccc(CNc4ccc5c(c4)CN([C@@H](CCC(=O)O)C(=O)O)C5=O)cc3c2c(=O)[nH]1 [Compound 2]
[4]
  substrate activity for FPGS: excellent substrate
